# Laboratory results as given in patent US9034814B2, “CXCR4 antagonists for wound healing and re-epithelialization” (Hadasit Medical Research Services and Development Ltd., priority 2005, dated 2015).
# “Also recorded” adds a separate entry of the source. Bridge positions count the residues as written; N and C are the ends. Square brackets hold non-standard residues; d marks the D form. * marks the point of attachment. 2Nal = N[C@@H](Cc1ccc2ccccc2c1)C(=O)O; Benzoyl(4-F) = O=C(c1ccc(F)cc1)*; Cit = NC(=O)NCCC[C@H](N)C(=O)O
# Assays:
# CXCR4 = target: T1, CXCR4 (Rattus norvegicus, UniProt O08565); assay: Transwell migration of rat lymphocytes in response to CXCL12; type: cell-based; details: CXCL12 100 ng/ml; antibody against CXCR4 10 μg/ml; FIG. 8
# T1 construct: endogenous in cells; host or cells: rat peripheral blood mononuclear cells / lymphocytes (Ficoll-Histopaque isolated)
# T1 sequence (O08565 whole entry): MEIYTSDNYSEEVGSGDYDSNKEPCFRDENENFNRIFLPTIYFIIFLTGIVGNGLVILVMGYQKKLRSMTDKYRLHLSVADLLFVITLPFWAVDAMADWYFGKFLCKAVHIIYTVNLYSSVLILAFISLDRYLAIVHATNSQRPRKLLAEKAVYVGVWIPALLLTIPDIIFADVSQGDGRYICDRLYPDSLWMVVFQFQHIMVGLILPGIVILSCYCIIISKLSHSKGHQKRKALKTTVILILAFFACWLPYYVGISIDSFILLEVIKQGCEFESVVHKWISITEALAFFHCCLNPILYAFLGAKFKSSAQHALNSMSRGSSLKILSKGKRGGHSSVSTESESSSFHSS
# Description: Rat peripheral blood cells were loaded on Ficoll-Histopaque gradient (Histopaque-1077-1, Sigma) and the peripheral blood mononuclear cells (PBMC) were isolated. Rat PBMC migration was assessed in 24-well chemotaxis chambers (6.5-mm diameter, 5-μm pore polycarbonate transwell culture insert; Costar, Cambridge, Mass.). 600 μl RPMI 1640 with 1% BSA (migration buffer) with or without 100 ng/ml of CXCL12α (Peprotech) were added to the lower wells, and 2×10^5 cells suspended in 100 μl of RPMI 1640 with 1% BSA were added to the upper wells. After three hours of incubation, the membrane was removed and migrating cells were counted for 1 min using fluorescence activated cell sorting (FACS).
# In order to evaluate the effect of the CXCR4 antagonist 4F-benzoyl-TN14003 and neutralizing antibodies to the receptor on the recovery of rat skin, the inventors first tested their ability to inhibit the migration of rat lymphocytes in response to CXCL12. Migration assay was carried out on total rat lymphocytes separated by Ficoll gradient and their migrating ability to medium containing CXCL12 was examined. Lymphocytes were incubated with the CXCR4 antagonist 4F-benzoyl-TN14003, or an antibody against CXCR4 (10 μg/ml).
# [1] = tested on: partial thickness burns in a rat model; assay: Rat partial thickness burn wound healing, histological evaluation; type: in vivo
# Excerpt: In order to examine the different phases in burn wound healing and the involvement of the chemokine CXCL12 and the receptor CXCR4, the following experiments were done. Wistar female rats were anesthetized and their back was shaved. 1 cm^2 burns were inflicted with a metal rod that has been immersed in a hot boiling water bath and laid on the posterior part of the hip and back for 2-3 seconds. All experiments were approved by the Animal care committee of the Medical Center, Tel-Aviv and the Hebrew University. Heterozygous mice bearing a GFP reporter knocked-in allele to the CX3CR1 locus (Qu et al. 2004) were maintained at the Weizmann Institute of Science Animal Facility, and burns were inflicted as described above. Each group of 3 animals was injected subcutaneously to the burned area with PBS. Animals were sacrificed at the indicated times after burn infliction: 0, 6 hr, 1 day, 3 days, 5 days and 7 days. Histopathological diagnosis was confirmed for each specimen. Histological sections were prepared from formalin-fixed, paraffin-embedded tissues stained with Hematoxylin and Eosin. Evaluation to the level of epithelialization and white blood cells (WBC) in the epidermis and dermis was made to each section by a scale from 1-5. The sections were scored by two independent pathologists.
# In other experiments, treated rats were injected subcutaneously to the burned area with one of the following: PBS, mAb against Rat CXCR4 (12G5 clone, R&D Systems Inc., Minneapolis, Minn.), or the small peptide CXCR4 inhibitor 4F-benzoyl-TN14003 (4F-benzoyl-Aig-Arg-Nal-Cys-Tyr-Cit-Lys-DLys-Pro-Tyr-Arg-Cit-Cys-Arg-NH2, SEQ ID NO:52; Tamamura et al., 2003). All animals were sacrificed 120 hr after injury. Histopathological diagnosis was confirmed for each specimen. Histological sections were prepared from formalin-fixed, paraffin-embedded tissues stained with Hematoxylin and Eosin. Evaluation to the level of epithelialization and white blood cells (WBC) in the dermis was made to each section by a scale from 1-5. The grading scale was as follows: 0=No inflammation or epithelialization; 1=Low inflammation or epithelialization; 2=Low to moderate inflammation or epithelialization; 3 Moderate inflammation or epithelialization; 4=High inflammation or epithelialization; 5=Very high inflammation or epithelialization. Each section was evaluated by two independent pathologists.
# Next, the inhibitory effect of CXCR4 antagonists on burn wound healing was examined (FIG. 9). Inhibitors were injected subcutaneously to the burned area at 0, 1 day, and 3 days (20 μg per injection), and animals were sacrificed 5 days post burn. […] A small but not significant decrease in the PMN population in the dermis was observed (FIG. 10). […]
# [2] = rat burn, 20 μg per injection s.c. at 0, 1 day, 3 days, 5 days post burn, FIG. 11
substance,measurement,setting,value
4F-benzoyl-Arg-Arg-Nal-Cys-Tyr-Cit-Lys-DLys-Pro-Tyr-Arg-Cit-Cys-Arg-NH2 ({Benzoyl(4-F)}-RR[2Nal]CY[Cit]K[dK]PYR[Cit]CR-NH2; disulfide 4-13 (inferred)) [4F-benzoyl-TN14003],effect on the migration of rat lymphocytes in response to CXCL12,CXCR4,strong inhibitory effect
same,accumulation of PMN cell population in the epidermis,[1]; [2],not affected
same,eosinophil accumulation in the dermis,[1]; [2],reduced eosinophilia; also recorded: strong and significant inhibition
same,epithelialization,"[1]; rat burn, 20 μg per injection subcutaneously to the burned area at 0, 1 day, 3 days, sacrificed 5 days post burn, FIG. 9",improved epithelialization; also recorded: increased epithelialization
same,"potency in improving wound healing in vivo, peptide antagonist versus neutralizing mAb",[1]; rat partial thickness burns,more potent than the neutralizing mAb
